Article PMC7995547, “ω‐Imidazolyl‐alkyl derivatives as new preclinical drug candidates for treating non‐alcoholic steatohepatitis” (Physiological Reports, 2021)
“Also recorded” adds a separate entry of the source.

Test system: male CD/Crl:CD(SD) rats
Assay: Acute toxicity study, single peroral application, 14‐day observation
Type: in vivo
Conditions: for Ataxia / Chromodacryorrhea / Dyspnoea / Inhibition of body weight gain / Mean body weight gain, After 7 d / Mean body weight, After 7 d / Mortality within 6 h / Mortality within 24 h / Necropsy findings / Piloerection / Ptosis / Reduced motility / Reduced muscle tone / Mean body weight gain, End / Mean body weight, End / Mean body weight, Start / Mortality within 7 d / Mortality within 14 d: p.o., males, n = 5; for Mean body weight gain, End / Mean body weight, End: 14‐day observation; for Mean body weight, Start: before administration; for Premature deaths in the acute toxicity study: rat, in vivo
Protocol: In total, 90 male CD®/Crl:CD(SD) rats from Charles River Laboratories, Deutschland GmbH, were used after randomization. Five rats were selected for each concentration of the corresponding experimental substance. […] In addition, a control group was formed with five rats receiving only the HPMC gel.
Feeding was stopped approximately 16 h before the start of test substance application, whereas tap water continued to be available ad libitum. Granulated structural wood was used as bedding material in the cages; the material was changed and the cages were cleaned twice a week. […] The rooms were illuminated (approximately 150 lux from a ceiling height of approximately 1.50 m) and darkened for 12 h in turns.
Each animal was kept under observation, so that any behavior deviating from the norm could be systematically recorded. Observations were made before the peroral application of the respective active substance, immediately after, and 5, 15, 30, and 60 min and 3, 6, and 24 h after the start of application. […] We focused on the changes in the skin and fur, the eyes and mucous membranes, respiration, circulation, the autonomous and central nervous systems, somatomotor activity, and behavior patterns. They were also observed for possible tremors, convulsions, salivation, diarrhea, lethargy, sleep, and coma. Mortality checks were performed at least once a day to minimize the loss of animals during the study. The time of death was recorded as accurately as possible. Individual body weights were recorded before the administration of experimental substances and, subsequently, at weekly intervals, until the end of the study and at death. Weight changes were calculated when survival exceeded 1 day.
At the end of the experiments, all surviving animals were sacrificed, dissected, and examined macroscopically. All notable pathological changes were recorded. A microscopic examination of all organs showing obvious lesions was performed on animals that survived for 24 h or longer. Autopsy and macroscopic inspection of prematurely deceased animals were performed as soon as possible after death.

## OCCCCCCCCCCCCn1ccnc1 [I‐ol, 12‐imidazolyl‐1‐dodecanol]
10 mg/kg b.w.
  Ataxia: None
  Chromodacryorrhea: None
  Dyspnoea: None
  Inhibition of body weight gain: None
  Mean body weight gain, After 7 d: +17.0%
  Mean body weight, After 7 d: 259.2 g
  Mortality within 6 h: 0
  Mortality within 24 h: 0
  Necropsy findings: None
  Piloerection: None
  Ptosis: None
  Reduced motility: None
  Reduced muscle tone: None
  Mean body weight gain, End: +30.0%
  Mean body weight, End: 288.0 g
  Mean body weight, Start: 221.6 g
10 mg/kg bw
  Mortality within 7 d: 0
  Mortality within 14 d: 0
50 mg/kg b.w.
  Ataxia: None
  Chromodacryorrhea: None
  Dyspnoea: None
  Inhibition of body weight gain: None
  Mean body weight gain, After 7 d: +22.2%
  Mean body weight, After 7 d: 278.4 g
  Mortality within 6 h: 0
  Mortality within 24 h: 0
  Necropsy findings: None
  Piloerection: None
  Ptosis: None
  Reduced motility: None
  Reduced muscle tone: None
  Mean body weight gain, End: +36.3%
  Mean body weight, End: 310.4 g
  Mean body weight, Start: 227.8 g
50 mg/kg bw
  Mortality within 7 d: 0
  Mortality within 14 d: 0
100 mg/kg b.w.
  Ataxia: None
  Chromodacryorrhea: None
  Dyspnoea: None
  Inhibition of body weight gain: None
  Mean body weight gain, After 7 d: +18.5%
  Mean body weight, After 7 d: 272.6 g
  Mortality within 6 h: 0
  Mortality within 24 h: 0
  Necropsy findings: None
  Piloerection: None
  Ptosis: None
  Reduced motility: None
  Reduced muscle tone: None
  Mean body weight gain, End: +33.0%
  Mean body weight, End: 305.8 g
  Mean body weight, Start: 230.0 g
100 mg/kg bw
  Mortality within 7 d: 0
  Mortality within 14 d: 0
250 mg/kg b.w.
  Ataxia: None
  Chromodacryorrhea: None
  Dyspnoea: None
  Inhibition of body weight gain: None
  Mean body weight gain, After 7 d: +19.6%
  Mean body weight, After 7 d: 266.8 g
  Mortality within 6 h: 0
  Mortality within 24 h: 0
  Necropsy findings: None
  Piloerection: None
  Ptosis: None
  Reduced motility: None
  Reduced muscle tone: None
  Mean body weight gain, End: +34.2%
  Mean body weight, End: 299.2 g
  Mean body weight, Start: 223.0 g
250 mg/kg bw
  Toxic signs: None
  Mortality within 7 d: 0
  Mortality within 14 d: 0
500 mg/kg b.w.
  Ataxia: None
  Chromodacryorrhea: None +
  Dyspnoea: None
  Inhibition of body weight gain: None
  Mean body weight gain, After 7 d: +29.0%
  Mean body weight, After 7 d: 294.2 g
  Mortality within 6 h: 0
  Mortality within 24 h: 0
  Necropsy findings: None
  Ptosis: None
  Reduced motility: None
  Reduced muscle tone: None
  Mean body weight gain, End: +46.6%
  Mean body weight, End: 334.2 g
  Mean body weight, Start: 228.0 g
500 mg/kg bw
  Toxic signs: None
  Mortality within 7 d: 0
  Mortality within 14 d: 0
1000 mg/kg b.w.
  Chromodacryorrhea: None
  Inhibition of body weight gain: None
  Mean body weight gain, After 7 d: +22.4%
  Mean body weight, After 7 d: 271.2 g
  Mortality within 6 h: 0
  Mortality within 24 h: 0
  Necropsy findings: None
  Piloerection: None
  Ptosis: None
  Mean body weight gain, End: +36.6%
  Mean body weight, End: 302.6 g
  Mean body weight, Start: 221.6 g
1000 mg/kg bw
  Toxic signs: reduced motility was observed, with reduced muscle tone, ataxia, and dyspnea; also recorded: Reduced motility and muscle tone, ataxia, dyspnoea
  Mortality within 7 d: 0
  Mortality within 14 d: 0
All doses
  Macroscopic necropsy findings: None
male, CD/Crl:CD(SD), 14 days
  Premature deaths in the acute toxicity study: None of the 30 rats died
  Premature deaths in the acute toxicity study: did not lead to any death
rats, single p.o. dose
  Dose up to which no acute toxicity was shown: 1000 mg/kg b.w.
  Lowest lethal dose: >1000 mg/kg bw
  No Observed Adverse Effect Level: 500 mg/kg bw
rats, single p.o. dose, 14 days
  LD50(14 d): >1000 mg/kg bw
